The target of assay [1] is MLL (Homo sapiens, UniProt Q03164). The assay is described as follows: Fluorescence polarization saturation binding of fluorescent probe to MLL. To be noted: saturation-binding format, mean ± SEM, read-out: Sinefungin Probe 1A Affinity. Here is the method:
(§1) Sinefungin Probe 1A was tested for the ability to bind to 16 proteins, including several non-methlytransferase protein controls (Table 2). This probe binds to 4 methyltransferases (SET7/9, G9a, GLP, MLL) with Kd values <2 μM.

Assay [2] concerns the target T1, NSD2 (Homo sapiens, UniProt O96028).
T1 construct: purchased Cayman 10758
T1 sequence (O96028 1-1365): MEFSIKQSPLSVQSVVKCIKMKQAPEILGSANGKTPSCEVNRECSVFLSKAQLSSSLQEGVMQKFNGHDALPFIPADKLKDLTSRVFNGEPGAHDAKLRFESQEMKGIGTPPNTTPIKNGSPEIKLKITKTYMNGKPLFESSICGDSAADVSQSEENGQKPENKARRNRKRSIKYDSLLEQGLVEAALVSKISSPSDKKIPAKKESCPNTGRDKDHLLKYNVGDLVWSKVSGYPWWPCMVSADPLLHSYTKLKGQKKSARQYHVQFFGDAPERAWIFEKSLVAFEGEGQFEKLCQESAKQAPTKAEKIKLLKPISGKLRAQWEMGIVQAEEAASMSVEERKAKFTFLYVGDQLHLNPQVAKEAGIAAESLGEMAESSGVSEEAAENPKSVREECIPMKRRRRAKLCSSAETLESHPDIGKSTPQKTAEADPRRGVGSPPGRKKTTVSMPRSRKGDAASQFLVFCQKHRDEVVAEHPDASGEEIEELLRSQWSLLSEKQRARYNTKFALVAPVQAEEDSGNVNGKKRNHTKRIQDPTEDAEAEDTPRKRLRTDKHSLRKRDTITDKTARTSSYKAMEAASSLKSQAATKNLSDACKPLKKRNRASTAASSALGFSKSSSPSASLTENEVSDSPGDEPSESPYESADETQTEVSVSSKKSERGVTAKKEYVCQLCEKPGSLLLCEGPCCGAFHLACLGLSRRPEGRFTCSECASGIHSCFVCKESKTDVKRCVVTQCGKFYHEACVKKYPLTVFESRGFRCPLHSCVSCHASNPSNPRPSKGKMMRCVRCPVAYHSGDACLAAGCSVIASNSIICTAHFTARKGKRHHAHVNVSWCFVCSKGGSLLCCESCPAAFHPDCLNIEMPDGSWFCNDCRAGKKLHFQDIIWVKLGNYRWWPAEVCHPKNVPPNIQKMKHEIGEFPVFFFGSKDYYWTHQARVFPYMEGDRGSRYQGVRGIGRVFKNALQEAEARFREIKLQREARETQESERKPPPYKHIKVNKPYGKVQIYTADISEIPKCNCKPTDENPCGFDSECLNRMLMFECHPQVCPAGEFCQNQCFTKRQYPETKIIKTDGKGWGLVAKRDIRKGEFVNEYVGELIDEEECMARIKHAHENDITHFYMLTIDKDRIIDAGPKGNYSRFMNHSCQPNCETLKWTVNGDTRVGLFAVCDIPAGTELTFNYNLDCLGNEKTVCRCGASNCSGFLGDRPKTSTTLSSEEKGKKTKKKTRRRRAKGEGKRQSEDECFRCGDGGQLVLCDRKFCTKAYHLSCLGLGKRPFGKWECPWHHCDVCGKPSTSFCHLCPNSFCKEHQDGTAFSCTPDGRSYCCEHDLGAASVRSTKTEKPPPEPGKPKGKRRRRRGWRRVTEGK
The assay is described as follows: Fluorescence polarization saturation binding of fluorescent probe to NSD2. Here is the method:
(§2) Methods: The experiment was performed once, with two replicate wells for all methyltransferases per condition. The sole exception to this is NSD2 (see details below). The assay was performed in a ½ area, black, 96-well plate (Corning #3686) in a final volume of 30 μL. Methyltransferases (Table 1) were serially diluted two-fold in FP buffer (Cayman Catalog #600028) and 15 μL of a given dilution were added per well to the assay plate. Fifteen microliters of sinefungin probe 1A (10 nM) were added to each well, giving a final sinefungin probe 1A concentration of 5 nM. This concentration of sinefungin probe 1A was chosen because it had at least a 10-fold increase in fluorescence (excitation max 575 nm/emission max 615 nm) over background (buffer). The mixture was incubated in the dark at room temperature for 30 minutes and its fluorescence polarization was read using a BioTek Synergy 4.
For NSD2, the assay was performed essentially as above, but with the following changes. The assay was performed in a 20 μL total volume (10 μL NSD2/10 μL sinefungin probe 1) in low-volume, black, 384-well plates (Nunc #264705). The concentrations of sinefungin probe 1A and methyltransferase were identical to that of the 96-well format. The assay was performed once with three replicate wells per condition.

In assay [3] the target is T2, SET8 (Homo sapiens, UniProt Q9NQR1).
T2 construct: purchased Cayman 10319
T2 sequence (Q9NQR1 1-393): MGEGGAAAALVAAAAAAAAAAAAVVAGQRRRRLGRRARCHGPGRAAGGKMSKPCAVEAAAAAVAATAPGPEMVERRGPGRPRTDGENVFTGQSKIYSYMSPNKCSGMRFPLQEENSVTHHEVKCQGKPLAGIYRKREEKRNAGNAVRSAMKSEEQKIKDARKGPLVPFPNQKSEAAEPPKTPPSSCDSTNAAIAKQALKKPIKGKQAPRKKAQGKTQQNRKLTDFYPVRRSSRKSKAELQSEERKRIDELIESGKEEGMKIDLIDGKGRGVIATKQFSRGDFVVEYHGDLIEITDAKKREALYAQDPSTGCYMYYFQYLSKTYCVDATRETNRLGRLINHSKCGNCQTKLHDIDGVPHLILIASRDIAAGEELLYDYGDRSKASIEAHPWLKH
The experiment in a line: Fluorescence polarization saturation binding of fluorescent probe to SET8. Here is the method: as §2

The target in assay [4] is DNMT3b (Homo sapiens, UniProt Q9UBC3). The assay is described as follows: Fluorescence polarization saturation binding of fluorescent probe to DNMT3b. The following applies: saturation-binding format, read-out: Sinefungin Probe 1A Affinity. Here is the method:
as §1

The results in this text go back to US9120820B2, “Fluorescent molecular probes for use in assays that measure test compound competitive binding with SAM-utilizing proteins” (CAYMAN CHEMICAL COMPANY, INCORPORATED, priority 2011, dated 2015).

MLL, sequence (Q03164 3785-3969 limits assumed): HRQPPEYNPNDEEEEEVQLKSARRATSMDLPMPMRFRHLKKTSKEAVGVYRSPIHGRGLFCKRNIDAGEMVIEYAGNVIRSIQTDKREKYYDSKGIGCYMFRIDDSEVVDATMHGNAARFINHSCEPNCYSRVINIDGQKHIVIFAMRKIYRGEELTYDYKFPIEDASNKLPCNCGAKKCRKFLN

With `Nc1ncnc2c1ncn2[C@@H]1O[C@H](C[C@@H](N)CC[C@H](N)C(=O)O)[C@@H](OCc2cnnn2CCCCCCNC(=O)OC2CCN(C(=O)c3ccccc3C3=c4cc5c6c(c4Oc4c3cc3c7c4CCCN7CCC3)CCC[N+]=6CCC5)CC2)[C@H]1O` [Sinefungin Probe 1A], the Kd in assay [1] was 750 ± 65 nM; in assay [2] (NSD2, saturation-binding format, read-out: Sinefungin Probe 1A Affinity), more than 2000 nM; in assay [3] (SET8, saturation-binding format, read-out: Sinefungin Probe 1A Affinity), more than 2000 nM; in assay [4] it was more than 2000 nM. In addition, the “measurable affinity for the probe” value in assay [2] (Example 8, NSD2, 5 nM probe, 384-well, FIG. 2) is “only SET7/9 and G9a displayed measurable affinity”; in assay [3] (Example 8, SET8, 5 nM probe, FIG. 2), “only SET7/9 and G9a displayed measurable affinity”.
